Measurements published in BindingDB's records for doi:10.1021/acs.jmedchem.8b00789 (Laval University, 2018).

Key:
[1] = Antagonist activity at UT receptor in Sprague-Dawley rat thoracic aortic ring assessed as reduction in URP-induced contraction by measuring pEC50 for human urotensin-2-induced contraction at 1 x 10^-7M pre-incubated for 30 mins before urotensin-2 stimulation (Rvb = 8.16 +/- 0.08 No_unit)
[2] = Antagonist activity at UT receptor in Sprague-Dawley rat thoracic aortic ring assessed as reduction in urotensin-2-induced contraction by measuring pEC50 for human urotensin-2-induced contraction at 1 x 10^-8M uM pre-incubated for 30 mins before urotensin-2 stimulation (Rvb = 8.59 +/- 0.12 No_unit)
[3] = Antagonist activity at UT receptor in Sprague-Dawley rat thoracic aortic ring assessed as reduction in urotensin-2-induced contraction by measuring pEC50 for human urotensin-2-induced contraction at 1 x 10^-7M uM pre-incubated for 30 mins before urotensin-2 stimulation (Rvb = 8.59 +/- 0.12 No_unit)
[4] = Antagonist activity at UT receptor in Sprague-Dawley rat thoracic aortic ring assessed as reduction in URP-induced contraction by measuring pEC50 for human urotensin-2-induced contraction at 3 x 10^-10M pre-incubated for 30 mins before urotensin-2 stimulation (Rvb = 8.16 +/- 0.08 No_unit)
[5] = Antagonist activity at UT receptor in Sprague-Dawley rat thoracic aortic ring assessed as reduction in URP-induced contraction by measuring pEC50 for human urotensin-2-induced contraction at 1 uM pre-incubated for 30 mins before urotensin-2 stimulation (Rvb = 8.16 +/- 0.08 No_unit)
[6] = Antagonist activity at UT receptor in Sprague-Dawley rat thoracic aortic ring assessed as reduction in urotensin-2-induced contraction by measuring pEC50 for human urotensin-2-induced contraction at 1 uM pre-incubated for 30 mins before urotensin-2 stimulation (Rvb = 8.59 +/- 0.12 No_unit)

SMILES | EC50 [1] [nM] | EC50 [2] [nM] | EC50 [3] [nM] | EC50 [4] [nM] | EC50 [5] [nM] | EC50 [6] [nM]
CC(C)[C@H](NC(=O)[C@@H]1CSSC[C@H](NC(=O)[C@H](C)N)C(=O)N[C@@H](Cc2ccc(-c3ccccc3)cc2)C(=O)N[C@@H](Cc2c[nH]c3ccccc23)C(=O)N[C@@H](CCCCN)C(=O)N[C@@H](Cc2ccc(O)cc2)C(=O)N1)C(=O)O | 112 | 7.2 | 17 | 35 |  | 
CC(C)[C@H](NC(=O)[C@@H]1CSSC[C@H](NC(=O)[C@@H](N)CC(=O)O)C(=O)N[C@H](Cc2ccc(I)cc2)C(=O)N[C@@H](Cc2c[nH]c3ccccc23)C(=O)N[C@@H](CCCCN)C(=O)N[C@@H](Cc2ccc(O)cc2)C(=O)N1)C(=O)O |  |  |  |  | 12 | 1.1
CC(C)[C@H](NC(=O)[C@@H]1CSSC[C@H](NC(=O)[C@H](C)N)C(=O)N[C@H](Cc2ccc(I)cc2)C(=O)N[C@@H](Cc2c[nH]c3ccccc23)C(=O)N[C@@H](CCCCN)C(=O)N[C@@H](Cc2ccc(O)cc2)C(=O)N1)C(=O)O |  |  |  |  | 13 | 3.2
CC(C)[C@H](NC(=O)[C@@H]1CSSC[C@H](NC(=O)[C@H](C)N)C(=O)N[C@H](Cc2ccc(C#Cc3ccccc3)cc2)C(=O)N[C@@H](Cc2c[nH]c3ccccc23)C(=O)N[C@@H](CCCCN)C(=O)N[C@@H](Cc2ccc(O)cc2)C(=O)N1)C(=O)O |  |  |  |  | 18 | 5.4
CC(C)[C@H](NC(=O)[C@@H]1CSSC[C@H](NC(=O)[C@H](C)N)C(=O)N[C@H](Cc2ccc(-c3ccccc3)cc2)C(=O)N[C@@H](Cc2c[nH]c3ccccc23)C(=O)N[C@@H](CCCCN)C(=O)N[C@@H](Cc2ccc(O)cc2)C(=O)N1)C(=O)O |  |  |  |  | 2.8 | 6.8
